Columns and labels:
Mus musculus [1] = test: Induction of catalepsy in ip dosed Mus musculus albino (mouse) measured after 20 min for 5 min; assay type: organism-based; conditions: in vivo
Mus musculus [2] = test: Induction of catalepsy in Mus musculus albino (mouse) at 25 mg/kg, ip measured after 20 min for 5 min; assay type: organism-based; set-up: dose 25 mg/kg, route intraperitoneal; conditions: in vivo
Mus musculus [3] = test: Atypical antipsychotic activity in Mus musculus albino (mouse) assessed as inhibition of apomorphine-induced climbing behaviour at 60 mg/kg, ip administered 30 min prior to apomorphine-challenge measured after 5 min for 30 min relative to control; assay type: functional; conditions: route intraperitoneal
Mus musculus [4] = test: Atypical antipsychotic activity in Mus musculus albino (mouse) assessed as inhibition of 5HTP-induced head twitching at 25 mg/kg, ip administered 30 min prior to 5-HTP-challenge measured after 20 min for 5 min
Mus musculus [5] = organism: Mus musculus; test: animal or person; conditions: albino, ip, read-out: INH
Description: Atypical antipsychotic activity in Mus musculus albino (mouse) assessed as inhibition of apomorphine-induced climbing behaviour at 25 mg/kg, ip administered 30 min prior to apomorphine-challenge measured after 5 min for 30 min relative to control

Row | SMILES | Activity (Mus musculus [1]) | Activity (Mus musculus [2]) | inhibition in vivo at 60 mg/kg (Mus musculus [3]) | inhibition in vivo at 25 mg/kg (Mus musculus [4]) | inhibition in vivo at 25 mg/kg (Mus musculus [5])
1 | O=c1oc2cc(OCCCN3CCCCC3)ccc2s1 | Dose-dependent effect | 41% | 51.2% | 67.3% | 
2 | O=c1oc2cc(OCCCN3CCOCC3)ccc2s1 | Dose-dependent effect | 39.27% | 69.6% | 71.5% | 
3 | CCN(CC)CCCOc1ccc2sc(=O)oc2c1 | Dose-dependent effect | 37.11% | 53.3% | 63.4% | 
4 | O=c1oc2cc(OCCCN3CCNCC3)ccc2s1 | Dose-dependent effect | 42.39% | 62.3% | 68.2% | 
5 | O=c1oc2cc(OCCCn3cnnc3)ccc2s1 | Dose-dependent effect | 36.98% | 70% | 79.3% | 
6 | O=c1oc2cc(OCCCOc3ccc4ccccc4c3)ccc2s1 | Dose-dependent effect | 41.22% | 47% | 61.1% | 
7 | O=c1oc2cc(OCCCOc3cccc4ccccc34)ccc2s1 | Dose-dependent effect | 49.21% | 39% | 58.3% | 
8 | O=c1oc2cc(OCCCOc3ccc(Cl)cc3)ccc2s1 | Dose-dependent effect | 33.71% | 49.3% | 77.9% | 
9 | Cc1ccc(OCCCOc2ccc3sc(=O)oc3c2)cc1 | Dose-dependent effect | 39.48% | 52.4% | 77.3% | 
10 | O=c1oc2cc(OCCCOc3ccc([N+](=O)[O-])cc3)ccc2s1 | Dose-dependent effect | 43.92% | 67.3% | 80% | 
11 | O=C1CCc2ccc(OCCCCN3CCN(c4cccc(Cl)c4Cl)CC3)cc2N1 [ARIPIPRAZOLE] |  | 29.34% |  | 80.2% | 62.4%

— ChEMBL document CHEMBL3046137, “Benzo[d][1,3] oxathiols: synthesis and biological evaluation as potential atypical antipsychotic agents” (Med Chem Res, 2011)
